Where two headings read alike, the source gives them in different places.
Experiments:
H460 cells = test: In vitro cell proliferation inhibition under normoxia (96-well, CTG, 72 hours); type: cell-based, human; details: for IC50 / inhibition at 0.0005 µM / inhibition at 0.0015 µM: Homo sapiens, NCI-H460; for IC50: read-out: IC50; for inhibition at 0.0005 µM: AST 0.5 nM; for inhibition at 0.0015 µM: AST 1.5 nM
Description: Overview of the experimental process • 1) H460 cell suspension was added to a 96-well plate at 100 µL per well, with a cell density of 2000 /well. • 2) The cells were cultured overnight in an incubator at 37°C, 5% CO2. • 3) Compound Treatment
Monotherapy: After 24 hours of cell plating, each well was supplied with 99.5 µL of growth medium then added with 0.5µL of test compounds at different concentrations, shaken gently to ensure even mixing, and then placed at 37°C, 5% CO2 in an incubator.
(§1) Combination therapy: After 24 hours of cell plating, each well was supplied with 99 µL of growth medium then added with 0.5µL of the combined action compound Nutlin-3, shaken gently to ensure even mixing, and then placed in an incubator for 2 hours. Then each well was added with 0.5µL of test compounds at different concentrations, shaken gently to ensure even mixing, and then placed at 37°C, 5% CO2 in an incubator.
(§2) 4) The cell plate was placed in the incubator for 72 hours.
(§3) 5) The cell plate to be tested was placed at room temperature to equilibrium for 30 minutes, and 100µL of medium was discarded per well.
(§4) 6) 25µL of CTG reagent was added to each well, placed at a fast shaker to shake for 2 minutes, and placed at room temperature away from light for 30 minutes.
(§5) 7) The chemiluminescence signal value was read using a multifunctional microplate reader with a reading time of 1000 ms.
8) IC50 was calculated with Graph Pad Prism 5 software.
(§6) • 1) H460 and HPAF-II cell suspensions were added to a 96-well plate at 100 µL per well, with a cell density of 2000 /well and 20000/well, respectively. • 2) The cells were cultured overnight in an incubator at 37°C, 5% CO2. • 3) Compound Treatment
(§7) Combination therapy: After 24 hours of cell plating, 99 µL of growth medium was supplied to each well. Each well was added with 0.5 µL of Nutlin-3 or RITA, shaken gently to ensure even mixing, and then placed in an incubator for 2 hours. Then each well was added with 0.5µL of test compounds at different concentrations, shaken gently to ensure even mixing, and then placed at 37°C, 5% CO2 in an incubator.
(§8) Monotherapy: After 24 hours of cell plating, 99.5 µL of growth medium was supplied to each well. Then each well was added with 0.5µL of test compounds at different concentrations, shaken gently to ensure even mixing, and then placed at 37°C, 5% CO2 in an incubator.
(§9) 7) The chemiluminescence signal value was read using a multifunctional microplate reader with a reading time of 1000 ms. The corresponding inhibition rate data were calculated.
(§10) • 1) NCI-H460, NCI-H460 P53KO # 1 cell suspensions were added to a 96-well plate at 100 µL per well, with a cell density of 2000 /well. • 2) The cells were cultured overnight in an incubator at 37°C, 5% CO2. • 3) Compound Treatment
as §1, with “plating,” for “plating, each well was supplied with”, “of” for “of growth”, “medium was supplied to each well. Each well was” for “medium then”, “of” for “of the”, “action compound,” for “action compound Nutlin-3,”
(§11) 8) The ICso (half maximal inhibitory concentration) values were calculated using GraphPad Prism 5 software.

HPAF-II cells [1] = test: In vitro cell proliferation inhibition (96-well, CTG, 72 hours); type: cell-based; details: for inhibition at 0.06 µM / inhibition at 0.2 µM / inhibition at 1.667 µM / inhibition at 5 µM: Homo sapiens, HPAF-II cells, 72 hours; for inhibition at 0.06 µM: AST 60 nM; for inhibition at 0.2 µM: AST 200 nM; for inhibition at 1.667 µM: AST 1667 nM; for inhibition at 5 µM: AST 5000 nM
Description: as §6, §7, §8, §2, §3, §4, §9

H460 P53 KO #1 = test: In vitro cell proliferation inhibition under normoxia, p53 knockout cells; type: cell-based, human
Description: (§12) The p53 CRISPR/Cas9 KO plasmid (human) and p53 HDR plasmid (human) were purchased from Santa Cruz Company to construct H460 P53 KO cell lines, namely p53 knockout (KnockOut) H460 cell lines. Three groups of H460 P53 KO cell lines were constructed with numbers of H460 P53 KO # 1, H460 P53 KO # 7, and H460 P53 KO # 12.
(§13) After co-incubation for 15 minutes, they were added dropwise to the culture medium and mixed well.
(§14) After 48 h, 2 µg/mL puromycin was added for screening.
(§15) When the cell colonies grew to a sufficient size, single colonies were picked and cultured.
(§16) When the cell number reached a sufficient quantity, samples were collected for WB identification of the colonies.
(§17) H460 P53 KO cell lines, i.e. H460 P53 KO # 1, H460 P53 KO # 7, H460 P53 KO # 12 cell lines were used in experiments, respectively.
as §10, §8
as §1, with “plating,” for “plating, each well was supplied with”, “of” for “of growth”, “medium was supplied to each well. Each well was” for “medium then”, “of” for “of the”, “action compound,” for “action compound Nutlin-3,”
as §2, §3, §4, §5, §11

H460 P53 KO #12 = test: as above; type: cell-based, human
Description: as §12, §13, §14, §15, §16, §17

H460 P53 KO #7 = test: as above; type: cell-based, human
Description: as §12, §13, §14, §15, §16, §17

HPAF-II cells [2] = test: In vitro cell proliferation inhibition (96-well, CTG, 72 hours); type: cell-based; details: Homo sapiens, monotherapy, applicant's previous cancer cell proliferation inhibition test data

IC50 (H460 cells; H460 cells, monotherapy, applicant's previous cancer cell proliferation inhibition test data): 6.87 nM
Structure (SMILES): O=[N+]([O-])c1ccc(C(OP(=O)(N2CC2)N2CC2)C(F)(F)F)cc1Oc1ccc(-c2ccc(F)cc2)c(F)c1 (centres unmarked) [AST]
concentration required to achieve an inhibition rate of 11-12% (H460 cells; AST monotherapy, p53 wild-type H460 cells): 1.5 nM
IC50 (H460 cells; H460 WT, normoxia, 72 hours, alone or with 3µM AST-3021 as labelled (Example 10)): 2.55 nM
inhibition at 0.0005 µM (H460 cells; H460 cells, 72 hours, RITA 0.025 µM, AST + RITA 0.5+0.025, read-out: Inhibition rate result, experimental group 1): -0.29%
inhibition at 0.0005 µM (H460 cells; H460 cells, 72 hours, RITA 0.05 µM, AST + RITA 0.5+0.05, read-out: Inhibition rate result, experimental group 2): -0.29%
inhibition at 0.0015 µM (H460 cells; H460 cells, 72 hours, RITA 0.025 µM, AST + RITA 1.5+0.025, read-out: Inhibition rate result, experimental group 3): 12.2%
inhibition at 0.0015 µM (H460 cells; H460 cells, 72 hours, RITA 0.05 µM, AST + RITA 1.5+0.05, read-out: Inhibition rate result, experimental group 4): 12.2%
concentration needed to achieve an inhibition rate of 11-12% (HPAF-II cells [1]; AST monotherapy, p53 mutant HPAF-II cells): 60 nM
inhibition at 0.06 µM (HPAF-II cells [1]; RITA 2.5 µM, AST + RITA 60+2.5, read-out: Inhibition rate, experimental group 1): 14.9%
inhibition at 0.06 µM (HPAF-II cells [1]; RITA 5 µM, AST + RITA 60+5, read-out: Inhibition rate, experimental group 2): 14.9%
inhibition at 0.2 µM (HPAF-II cells [1]; RITA 2.5 µM, AST + RITA 200+2.5, read-out: Inhibition rate, experimental group 3): 11.8%
inhibition at 0.2 µM (HPAF-II cells [1]; RITA 5 µM, AST + RITA 200+5, read-out: Inhibition rate, experimental group 4): 11.8%
inhibition at 1.667 µM (HPAF-II cells [1]; RITA 2.5 µM, AST + RITA 1667+2.5, read-out: Inhibition rate, experimental group 5): 74.3%
inhibition at 1.667 µM (HPAF-II cells [1]; RITA 5 µM, AST + RITA 1667+5, read-out: Inhibition rate, experimental group 6): 74.3%
inhibition at 5 µM (HPAF-II cells [1]; RITA 2.5 µM, AST + RITA 5000+2.5, read-out: Inhibition rate, experimental group 7): 68.8%
inhibition at 5 µM (HPAF-II cells [1]; RITA 5 µM, AST + RITA 5000+5, read-out: Inhibition rate, experimental group 8): 68.8%
IC50 (H460 P53 KO #1; Homo sapiens, NCI-H460, H460 P53 KO # 1, normoxia, 72 hours, alone or with 3µM AST-3021 as labelled (Example 10)): 264 nM
Ratio (monotherapy), knockout/wild (H460 P53 KO #1; IC50 ratio, H460 P53 KO # 1 versus H460 WT): 103.53
IC50 (H460 P53 KO #12; Homo sapiens, NCI-H460, H460 P53 KO # 12, normoxia, 72 hours, alone or with 3µM AST-3021 as labelled (Example 10)): 28 nM
Ratio (monotherapy), knockout/wild (H460 P53 KO #12; IC50 ratio, H460 P53 KO # 12 versus H460 WT): 10.96
IC50 (H460 P53 KO #7; Homo sapiens, NCI-H460, H460 P53 KO # 7, normoxia, 72 hours, alone or with 3µM AST-3021 as labelled (Example 10)): 220 nM
Ratio (monotherapy), knockout/wild (H460 P53 KO #7; IC50 ratio, H460 P53 KO # 7 versus H460 WT): 86.08
IC50 (HPAF-II cells [2]): 329 nM
